Values quoted from earlier work in patent publication US20240065969A1, “OPHTHALMIC TOPICAL CREAM FORMULATIONS AND USES THEREOF” (Glaukos Corporation, priority 2022, published 2024).

Structure (SMILES): CC[C@@H]1C(=O)OC[C@@H]1Cc1cncn1C [pilocarpine]
- pKa: ~6.5
